Source: patent publication US20090143279A1 (priority 2007, published 2009)
Where two headings read alike, the source gives them in different places.

Columns and labels:
[1] = system: mitochondrial membrane potential; type: cell-based, mouse; details: for ΔΨm (composite Z-score): normalized score vs mock-treated (DMSO) wells
reactive oxygen species = type: cell-based, mouse; details: for ROS (composite Z-score): normalized score vs mock-treated (DMSO) wells
OXPHOS gene expression = type: cell-based, mouse; details: for GE-HTS (composite Z-score): normalized score vs mock-treated (DMSO) wells
nuOXPHOS transcripts = type: cell-based, mouse; details: for nucOX (composite Z-score): normalized score vs mock-treated (DMSO) wells
mtOXPHOS transcripts = type: cell-based, mouse; details: for mitoOX (composite Z-score): normalized score vs mock-treated (DMSO) wells
cytochrome c = type: cell-based, mouse; details: for cyt c (composite Z-score): normalized score vs mock-treated (DMSO) wells
cytochrome c, sequence (P62897 whole entry): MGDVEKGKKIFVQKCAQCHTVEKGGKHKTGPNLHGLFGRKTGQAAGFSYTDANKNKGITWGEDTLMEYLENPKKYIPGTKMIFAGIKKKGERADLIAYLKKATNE

C2C12 myotubes = details: for Viability (composite Z-score): normalized score vs mock-treated (DMSO) wells
[2] = system: cellular dehydrogenase activity; details: for MTT (composite Z-score): normalized score vs mock-treated (DMSO) wells
[3] = Table 4, C2C12 myotubes, 48 h, JC-1, composite Z-score
[4] = normalized composite Z-score vs mock-treated (DMSO) wells, Conc 20 μM
[5] = Table 4, C2C12 myotubes, 48 h, composite Z-score
[6] = composite Z-score vs DMSO wells, Conc 20 μM
[7] = composite Z-score vs DMSO, Conc 20 μM
[8] = composite Z-score vs mock-treated (DMSO) wells, Conc 20 μM
[9] = 20 μM, composite Z-score vs DMSO

dihydromundulone [reference compound]
ΔΨm [1, 3]: −0.530
ΔΨm [1, 4]: −0.530
ROS (reactive oxygen species; [5]): 0.537
ROS (reactive oxygen species; [4]): 0.537
GE-HTS (OXPHOS gene expression; [4]): 0.414
nucOX (nuOXPHOS transcripts; [4]): 0.513
mitoOX (mtOXPHOS transcripts; [4]): 0.168
cyt c (cytochrome c; [4]): −0.210
Viability (C2C12 myotubes; [5]): 0.816
Viability (C2C12 myotubes; [4]): 0.816
MTT [2, 5]: 0.189
MTT [2, 4]: 0.189

estrone hemisuccinate
ΔΨm [1, 6]: −0.573
ROS (reactive oxygen species; [6]): 0.834
GE-HTS (OXPHOS gene expression; [6]): 0.261
nucOX (nuOXPHOS transcripts; [6]): 0.370
mitoOX (mtOXPHOS transcripts; [6]): −0.003
cyt c (cytochrome c; [6]): 0.250
Viability (C2C12 myotubes; [6]): −0.076
MTT [2, 6]: −0.686

gentamicin sulfate
ΔΨm [1, 7]: −1.213
ROS (reactive oxygen species; [7]): 0.369
GE-HTS (OXPHOS gene expression; [7]): −0.117
nucOX (nuOXPHOS transcripts; [7]): −0.267
mitoOX (mtOXPHOS transcripts; [7]): 0.188
cyt c (cytochrome c; [7]): −0.896
Viability (C2C12 myotubes; [7]): −0.804
MTT [2, 7]: −0.150

ginkgolic acid
ΔΨm [1, 7]: −0.905
ROS (reactive oxygen species; [7]): −0.116
GE-HTS (OXPHOS gene expression; [7]): −0.062
nucOX (nuOXPHOS transcripts; [7]): −0.315
mitoOX (mtOXPHOS transcripts; [7]): 0.505
cyt c (cytochrome c; [7]): 0.587
Viability (C2C12 myotubes; [7]): −0.686
MTT [2, 7]: −0.461

isoduartin methyl ether [reference compound]
ΔΨm (composite Z-score) ([1]; Conc 20 μM): −0.777
ΔΨm [1, 3]: −0.777
ROS (composite Z-score) (reactive oxygen species; Conc 20 μM): 0.599
ROS (reactive oxygen species; [5]): 0.599
GE-HTS (composite Z-score) (OXPHOS gene expression; Conc 20 μM): −0.182
nucOX (composite Z-score) (nuOXPHOS transcripts; Conc 20 μM): −0.008
mitoOX (composite Z-score) (mtOXPHOS transcripts; Conc 20 μM): −0.434
cyt c (composite Z-score) (cytochrome c; Conc 20 μM): 0.882
Viability (composite Z-score) (C2C12 myotubes; Conc 20 μM): −0.603
Viability (C2C12 myotubes; [5]): −0.603
MTT (composite Z-score) ([2]; Conc 20 μM): −2.055
MTT [2, 5]: −2.055

khayanthone
ΔΨm [1, 8]: 0.962
ROS (reactive oxygen species; [8]): 0.015
GE-HTS (OXPHOS gene expression; [8]): 1.491
nucOX (nuOXPHOS transcripts; [8]): 1.510
mitoOX (mtOXPHOS transcripts; [8]): 1.095
cyt c (cytochrome c; [8]): −0.669
Viability (C2C12 myotubes; [8]): 1.156
MTT [2, 8]: −0.382

mepartricin
ΔΨm (composite Z-score) ([1]; Conc 20 μM): −0.309
ROS (composite Z-score) (reactive oxygen species; Conc 20 μM): −0.251
GE-HTS (composite Z-score) (OXPHOS gene expression; Conc 20 μM): −0.710
nucOX (composite Z-score) (nuOXPHOS transcripts; Conc 20 μM): −0.728
mitoOX (composite Z-score) (mtOXPHOS transcripts; Conc 20 μM): −0.464
cyt c (composite Z-score) (cytochrome c; Conc 20 μM): 0.264
Viability (composite Z-score) (C2C12 myotubes; Conc 20 μM): −0.568
MTT (composite Z-score) ([2]; Conc 20 μM): −1.431

methyl 7-deshydroxypyrogallin-4-carboxylate
ΔΨm [1, 4]: −1.695
ROS (reactive oxygen species; [4]): 0.145
GE-HTS (OXPHOS gene expression; [4]): −1.502
nucOX (nuOXPHOS transcripts; [4]): −1.394
mitoOX (mtOXPHOS transcripts; [4]): −1.395
cyt c (cytochrome c; [4]): 0.133
Viability (C2C12 myotubes; [4]): −0.873
MTT [2, 4]: −1.261

methylorsellinic acid, ethyl ester
ΔΨm [1, 4]: −0.478
ROS (reactive oxygen species; [4]): −0.293
GE-HTS (OXPHOS gene expression; [4]): −0.990
nucOX (nuOXPHOS transcripts; [4]): −1.040
mitoOX (mtOXPHOS transcripts; [4]): −0.770
cyt c (cytochrome c; [4]): 0.754
Viability (C2C12 myotubes; [4]): 0.459
MTT [2, 4]: −0.661

muurolladie-3-one
ΔΨm [1, 4]: 0.063
ROS (reactive oxygen species; [4]): −0.490
GE-HTS (OXPHOS gene expression; [4]): −0.747
nucOX (nuOXPHOS transcripts; [4]): −0.745
mitoOX (mtOXPHOS transcripts; [4]): −0.569
cyt c (cytochrome c; [4]): −0.234
Viability (C2C12 myotubes; [4]): −0.720
MTT [2, 4]: −1.161

phytol
ΔΨm [1, 4]: −0.233
ROS (reactive oxygen species; [4]): 0.940
GE-HTS (OXPHOS gene expression; [4]): −0.177
nucOX (nuOXPHOS transcripts; [4]): −0.098
mitoOX (mtOXPHOS transcripts; [4]): −0.270
cyt c (cytochrome c; [4]): 0.020
Viability (C2C12 myotubes; [4]): −0.520
MTT [2, 4]: −0.544

polymyxin b sulfate
ΔΨm [1, 9]: 0.738
ROS (reactive oxygen species; [9]): 0.342
GE-HTS (OXPHOS gene expression; [9]): −0.382
nucOX (nuOXPHOS transcripts; [9]): −0.349
mitoOX (mtOXPHOS transcripts; [9]): −0.341
cyt c (cytochrome c; [9]): −0.323
Viability (C2C12 myotubes; [9]): 0.819
MTT [2, 9]: −0.522

pteryxin
ΔΨm (composite Z-score) ([1]; Conc 20 μM): 0.300
ROS (composite Z-score) (reactive oxygen species; Conc 20 μM): 1.106
GE-HTS (composite Z-score) (OXPHOS gene expression; Conc 20 μM): −0.101
nucOX (composite Z-score) (nuOXPHOS transcripts; Conc 20 μM): −0.097
mitoOX (composite Z-score) (mtOXPHOS transcripts; Conc 20 μM): −0.108
cyt c (composite Z-score) (cytochrome c; Conc 20 μM): 0.711
Viability (composite Z-score) (C2C12 myotubes; Conc 20 μM): −0.681
MTT (composite Z-score) ([2]; Conc 20 μM): −1.515

spiramycin
ΔΨm [1, 7]: −0.686
ROS (reactive oxygen species; [7]): 0.379
GE-HTS (OXPHOS gene expression; [7]): −0.691
nucOX (nuOXPHOS transcripts; [7]): −0.867
mitoOX (mtOXPHOS transcripts; [7]): −0.204
cyt c (cytochrome c; [7]): 0.216
Viability (C2C12 myotubes; [7]): 0.176
MTT [2, 7]: −0.770

theaflavin monogallate
ΔΨm [1, 4]: −0.581
ROS (reactive oxygen species; [4]): −0.820
GE-HTS (OXPHOS gene expression; [4]): −0.211
nucOX (nuOXPHOS transcripts; [4]): −0.017
mitoOX (mtOXPHOS transcripts; [4]): −0.612
cyt c (cytochrome c; [4]): 1.252
Viability (C2C12 myotubes; [4]): 0.945
MTT [2, 4]: −0.786

totarol acetate
ΔΨm [1, 7]: −0.556
ROS (reactive oxygen species; [7]): 0.452
GE-HTS (OXPHOS gene expression; [7]): 0.574
nucOX (nuOXPHOS transcripts; [7]): 0.830
mitoOX (mtOXPHOS transcripts; [7]): −0.125
cyt c (cytochrome c; [7]): 1.207
Viability (C2C12 myotubes; [7]): −0.273
MTT [2, 7]: 0.730
